Measured values taken from patent US20250341026A1, “METHODS AND MEANS FOR PREPARING A LIBRARY FOR SEQUENCING” (Illumina, Inc., priority 2018, published 2025).

How the values were obtained:
mtDNA [1] = assay: ATAC-seq reads mapped to mtDNA after contacting the sample with dye; type: biochemical; conditions: for Effect on mitochondrial DNA reads: ATAC-seq, increasing dye concentrations (FIGS. 2A-2C); for % Mapped to mtDNA: transposition and ATAC-seq
Protocol: (§1) A sample was obtained having both nuclear DNA and mtDNA. The sample was separated into various aliquots, and each aliquot was contacted with Hoechst 33258 dye in various concentrations, including 8 μM, 80 μM, and 800 μM. Each aliquot was then subjected to transposition and ATAC-seq, and the DNA reads were analyzed.
(§2) As shown in FIGS. 2A-2C, Hoechst dye selectively stained mtDNA, preventing transposition into mtDNA, but allowing transposition of nuclear DNA. […] The methods and compositions may be used for bulk ATAC-seq or single cell ATAC-seq to inhibit, reduce, or eliminate undesired mtDNA sequencing reads.

nucleosome positioning = assay: ATAC-seq profiles (nucleosome positioning) with dyes compared to no dye control; type: biochemical; conditions: FIG. 4; compared to the no dye control
Protocol: A sample was obtained having both nuclear DNA and mtDNA. The sample was separated into various aliquots, and each aliquot was contacted with a different dye in various concentrations. Five different dyes were used, including Hoechst (at concentrations of 50 μM, 25 μM, 12 μM, 6 μM, 3 μM, and 0.6 μM), SYBR Gold (at concentrations of 500 μM, 50 μM, 5 μM, 0.5 μM, and 0.1 μM), Sytox Orange (at concentrations of 500 μM, 50 μM, 5 μM, 0.5 μM, and 0.1 μM), PicoGreen (at concentrations of 100 μM, 10 μM, 1 μM, 0.1 μM, and 0.02 μM), and Qubit (at concentrations of 100 μM, 10 μM, 1 μM, 0.1 μM, and 0.02 μM), as shown in FIGS. 3A-3C. Another aliquot was prepared that was not exposed to any dye. Each aliquot was then subjected Nextera transposition and products were visualized on a gel. FIG. 3A depicts the gel for Hoechst and SYBR Gold. FIG. 3B depicts the gel for Sytox Orange and PicoGreen, and FIG. 3C depicts the gel for Qubit and no dye. High molecular weight DNA products are indicative of inefficient transposition.
Hoechst allows relatively unbiased ATAC-seq profiling while not changing nucleosome positioning.

gDNA (nuclear) = assay: ATAC-seq reads mapped to nuclear gDNA after contacting the sample with dye; type: biochemical; conditions: transposition and ATAC-seq
Protocol: as §1, §2

mtDNA [2] = assay: DAPI staining of samples; type: binding
Excerpt: In addition to performing transposition and ATAC-seq, the samples were also stained. […] DAPI stained DNA, but not at certain locations.

[3] = Concentration of Hoechst 800 μM

CN1CCN(c2ccc3[nH]c(-c4ccc5[nH]c(-c6ccc(O)cc6)nc5c4)nc3c2)CC1 [Hoechst, Hoechst 33258]
Effect on mitochondrial DNA reads (mtDNA [1]): reduces mitochondrial DNA reads
Effect on mitochondrial DNA reads (mtDNA [1]; listed as Hoechst dye): decreasing mtDNA reads
% Mapped to mtDNA (mtDNA [1]; Concentration of Hoechst 8 μM): 32%
% Mapped to mtDNA (mtDNA [1]; Concentration of Hoechst 80 μM): 11%
% Mapped to mtDNA (mtDNA [1]; [3]): 0%
Effect on ATAC-seq profiles (nucleosome positioning) (nucleosome positioning): does not alter the ATAC-seq profiles
% Mapped to gDNA (nuclear) (gDNA (nuclear); Concentration of Hoechst 8 μM): 68%
% Mapped to gDNA (nuclear) (gDNA (nuclear); Concentration of Hoechst 80 μM): 89%
% Mapped to gDNA (nuclear) (gDNA (nuclear); [3]): 100%

N=C(N)c1ccc(-c2cc3ccc(C(=N)N)cc3[nH]2)cc1 [DAPI, 4′, 6-diamidino-2-phenylindole]
Staining of mtDNA versus actively transcribed regions of nuclear DNA (mtDNA [2]): staining of mtDNA took place but not of actively transcribed (ATAC) regions of nuclear DNA
